The record followed here is US20090023186A1, “USE OF VALPROIC ACID FOR ENHANCING PRODUCTION OF RECOMBINANT PROTEINS IN MAMMALIAN CELLS” (EXCELLGENE SA, priority 2007, published 2009).

One test deals with CHO DG44 cells. Put plainly: Alternative transgene TNFR-Fc, batch titer by ELISA (Example 4). The test is classed as cell-based, Chinese Hamster. The note with it: 0.5 mmol/l final VPA, day 5 after transfection. The procedure: 10 million suspension-adapted HEK293E cells were resuspended in 0.5 ml of Ex-Cell 293 HEK 293 serum-free medium with 4 mmol/l L-glutamine (Cat. No. 14571C-[…]; Lot No. 6A0093; SAFC Biosciences, Lenexa, Kans., USA, “Ex-Cell” medium; note: “Ex-Cell” medium-as used herein-refers to a medium comprising 4 mmol/l L-glutamine) in a 50-ml filter tube each (TPP AG, Trasadingen, Switzerland; Cat. No. 87050, Lot 20050174). In a separate set, 10 million suspension-adapted CHO DG44 cells were resuspended in 0.5 ml of ProCHO5 serum-free medium with 4 mmol/[…] hypoxanthine and 0.194 g/l thymidine (BioWhittaker (Lonza), Belgium; Cat. No. BE12-[…]; Lot No. 7MB0040; “ProCHO5” medium; note: “ProCHO5” medium-as used herein-refers to a medium comprising 4 mmol/[…] hypoxanthine and 0.194 g/l thymidine) in a 50-ml filter tube each (TPP AG, Trasadingen, Switzerland; Cat. No. 87050, Lot 20050174). […] In short, Goat Anti-Human IgG (Fc Fragment specific; Jackson ImmunoResearch Laboratories Inc., West Grove, Pa., USA; Code Number 109-006-098; Lot No. 72349) was used for coating the ELISA-plates, and with AP-conjugated goat anti-human gamma chain IgG (Biosource) the synthesized TNFR-Fc was detected. […] Absorption was measured at 405 nm against 490 nm using a microplate reader (SPECTRAmaxTM340; Molecular Devices, Palo Alto, Calif., USA).
In general terms: An ELISA detects its analyte on a solid surface through an enzyme-linked reagent.

The next test relates to HEK293E cells. Put plainly: Multiple VPA additions, IgG batch titer by ELISA (Example 3). The test is classed as cell-based, Human. The note with it: day 10 after transfection. The method, then: 10 million suspension-adapted HEK293E cells were resuspended in 0.5 ml of Ex-Cell 293 HEK 293 serum-free medium with 4 mmol/l L-glutamine (Cat. No. 14571C-[…]; Lot No. 6A0093; SAFC Biosciences, Lenexa, Kans., USA, “Ex-Cell” medium; note: “Ex-Cell” medium-as used herein-refers to a medium comprising 4 mmol/l L-glutamine) in a 50-ml filter tube each (TPP AG, Trasadingen, Switzerland; Cat. No. 87050, Lot 20050174). In a separate set, 10 million suspension-adapted CHO DG44 cells were resuspended in 0.5 ml of ProCHO5 serum-free medium with 4 mmol/[…] hypoxanthine and 0.194 g/l thymidine (BioWhittaker (Lonza), Belgium; Cat. No. BE12-[…]; Lot No. 7 MB0040; “ProCHO5” medium; note: “ProCHO5” medium-as used herein-refers to a medium comprising 4 mmol/[…] hypoxanthine and 0.194 g/l thymidine) in a 50-ml filter tube each (TPP AG, Trasadingen, Switzerland; Cat. No. 87050, Lot 20050174). Then 12.5 μg plasmid DNA at a concentration of 1 μg/μl was added in each tube with the following composition 50% (6.25 μg) p-LC (SEQ ID NO: 1) 50% (6.25 μg) p-HC (SEQ ID NO: 3). Plasmid p-LC comprises the genetic information for the production of the light chain of an IgG antibody, plasmid p-HC comprises the genetic information for the production of the heavy chain of an IgG antibody. The particular vector constructs used in the present invention can also be obtained from the inventors. The inventors can be contacted via e-mail at […]. […] In short, Goat anti-human kappa light chain IgG (Biosource) was used for coating the ELISA-plates, and with AP-conjugated goat anti-human gamma chain IgG (Biosource) the synthesized IgG1 was detected. […] Absorption was measured at 405 nm against 490 nm using a microplate reader (SPECTRAmaxTM340; Molecular Devices, Palo Alto, Calif., USA).

Consider `CCCC(CCC)C(=O)O` [VPA, valproic acid], for which the Batch titer amounted to 27.7 ± 3.7 mg/L in the test on CHO DG44 cells; 193 mg/L in the test with HEK293E cells (4 mmol/l VPA at day 0); 182 mg/L with HEK293E cells (escalating dosage, 1 to 4 mmol/l in 1 mmol/l increments every other day). The “Fold increase over control” value with CHO DG44 cells came out at 1.8 fold. For the same compound, the “batch titers, direct addition versus slowly increasing concentration” value in the test with HEK293E cells is “statistically not different”.
